According to patent publication US20100298141A1, “SUBSTITUTED PYRIDINE N-OXIDE HERBICIDES” (E. I. DU PONT DE NEMOURS AND COMPANY, priority 2007, published 2010):

Experiments:
Assay in all cases: Test F preemergence test
Settings in all cases: scale 0 to 100
bermudagrass = format: in vivo, Cynodon dactylon
Method in brief: (§1)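 Compounds in a non-phytotoxic solvent formulation with surfactant were applied before emergence after sowing, or, for sugarcane, also postemergence. Evaluation was visual, against controls, after 14 to 21 greenhouse days.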

Surinam grass = format: in vivo, Brachiaria decumbens
Method in brief: as §1

goosegrass = format: in vivo, Eleusine indica
Method in brief: as §1

johnsongrass = format: in vivo, Sorghum halepense
Method in brief: as §1

pitted morningglory = format: in vivo, Ipomoea lacunosa
Method in brief: as §1

purple nutsedge = format: in vivo, Cyperus rotundus
Method in brief: as §1

common ragweed = format: in vivo, Ambrosia elation
Method in brief: as §1

guineagrass = format: in vivo, Panicum maximum
Method in brief: as §1

southern sandbur = format: in vivo, Cenchrus echinatus
Method in brief: as §1

prickly sida = format: in vivo, Sida spinosa
Method in brief: as §1

Italian ryegrass = format: in vivo, Lolium multiflorum
Method in brief: as §1

common purslane = format: in vivo, Portulaca oleracea
Method in brief: as §1

broadleaf signalgrass = format: in vivo, Brachiaria platyphylla
Method in brief: as §1

naked crabgrass = format: in vivo, Digitaria nuda
Method in brief: as §1

itchgrass = format: in vivo, Rottboellia cochinchinensis
Method in brief: as §1

field bindweed = format: in vivo, Convolvulus arvensis
Method in brief: as §1

Cn1nc(C(F)(F)F)c(CS(=O)(=O)c2cccc[n+]2[O-])c1OC(F)F [Compound 4]
Plant response rating, Bermudagrass (bermudagrass; 8 g ai/ha, preemergence): 20
Bermudagrass plant response rating (bermudagrass; 62 g ai/ha, Preemergence): 100
Plant response rating, Bermudagrass (bermudagrass; Preemergence, 16 g ai/ha): 98
Plant response rating, Bermudagrass (bermudagrass; Preemergence, 31 g ai/ha): 100
Plant response rating, Surinam Grass (Surinam grass; 8 g ai/ha, preemergence): 0
Plant response rating, Surinam Grass (Surinam grass; 16 g ai/ha, preemergence): 20
Plant response rating, Surinam Grass (Surinam grass; Preemergence, 31 g ai/ha): 100
Plant response rating, Goosegrass (goosegrass; 8 g ai/ha, preemergence): 0
Goosegrass plant response rating (goosegrass; 62 g ai/ha, Preemergence): 98
Plant response rating, Goosegrass (goosegrass; Preemergence, 16 g ai/ha): 80
Plant response rating, Goosegrass (goosegrass; Preemergence, 31 g ai/ha): 98
Plant response rating, Johnsongrass (johnsongrass; 8 g ai/ha, preemergence): 5
Johnsongrass plant response rating (johnsongrass; 62 g ai/ha, Preemergence): 95
Plant response rating, Johnsongrass (johnsongrass; Preemergence, 16 g ai/ha): 75
Plant response rating, Johnsongrass (johnsongrass; Preemergence, 31 g ai/ha): 90
Plant response rating, Morningglory (pitted morningglory; 8 g ai/ha, preemergence): 0
Morningglory plant response rating (pitted morningglory; 62 g ai/ha, Preemergence): 0
Plant response rating, Morningglory (pitted morningglory; Preemergence, 16 g ai/ha): 0
Plant response rating, Morningglory (pitted morningglory; Preemergence, 31 g ai/ha): 0
Plant response rating, Purple Nutsedge (purple nutsedge; 8 g ai/ha, preemergence): 0
Purple Nutsedge plant response rating (purple nutsedge; 62 g ai/ha, Preemergence): 80
Plant response rating, Purple Nutsedge (purple nutsedge; Preemergence, 16 g ai/ha): 65
Plant response rating, Purple Nutsedge (purple nutsedge; Preemergence, 31 g ai/ha): 65
Plant response rating, Ragweed (common ragweed; 8 g ai/ha, preemergence): 0
Ragweed plant response rating (common ragweed; 62 g ai/ha, Preemergence): 90
Plant response rating, Ragweed (common ragweed; Preemergence, 16 g ai/ha): 65
Plant response rating, Ragweed (common ragweed; Preemergence, 31 g ai/ha): 75
Plant response rating, Guineagrass (guineagrass; 8 g ai/ha, preemergence): 50
Guineagrass plant response rating (guineagrass; 62 g ai/ha, Preemergence): 100
Plant response rating, Guineagrass (guineagrass; Preemergence, 16 g ai/ha): 80
Plant response rating, Guineagrass (guineagrass; Preemergence, 31 g ai/ha): 100
Plant response rating, Sandbur (southern sandbur; 8 g ai/ha, preemergence): 25
Plant response rating, Sandbur (southern sandbur; 16 g ai/ha, preemergence): 90
Sandbur plant response rating (southern sandbur; 62 g ai/ha, Preemergence): 100
Plant response rating, Sandbur (southern sandbur; Preemergence, 31 g ai/ha): 100
Plant response rating, Prickly Sida (prickly sida; 8 g ai/ha, preemergence): 0
Prickly Sida plant response rating (prickly sida; 62 g ai/ha, Preemergence): 0
Plant response rating, Prickly Sida (prickly sida; Preemergence, 16 g ai/ha): 0
Plant response rating, Prickly Sida (prickly sida; Preemergence, 31 g ai/ha): 0
Plant response rating, Ryegrass, Italian (Italian ryegrass; 8 g ai/ha, preemergence): 0
Ryegrass, Italian plant response rating (Italian ryegrass; 62 g ai/ha, Preemergence): 65
Plant response rating, Ryegrass, Italian (Italian ryegrass; Preemergence, 16 g ai/ha): 0
Plant response rating, Ryegrass, Italian (Italian ryegrass; Preemergence, 31 g ai/ha): 65
Plant response rating, Purslane (common purslane; 8 g ai/ha, preemergence): 15
Purslane plant response rating (common purslane; 62 g ai/ha, Preemergence): 20
Plant response rating, Purslane (common purslane; Preemergence, 16 g ai/ha): 15
Plant response rating, Purslane (common purslane; Preemergence, 31 g ai/ha): 20
Plant response rating, Signalgrass (broadleaf signalgrass; 8 g ai/ha, preemergence): 0
Plant response rating, Signalgrass (broadleaf signalgrass; 16 g ai/ha, preemergence): 15
Signalgrass plant response rating (broadleaf signalgrass; 62 g ai/ha, Preemergence): 80
Plant response rating, Signalgrass (broadleaf signalgrass; Preemergence, 31 g ai/ha): 35
Plant response rating, Crabgrass, Naked (naked crabgrass; 8 g ai/ha, preemergence): 70
Crabgrass, Naked plant response rating (naked crabgrass; 62 g ai/ha, Preemergence): 100
Plant response rating, Crabgrass, Naked (naked crabgrass; Preemergence, 16 g ai/ha): 70
Plant response rating, Crabgrass, Naked (naked crabgrass; Preemergence, 31 g ai/ha): 100
Plant response rating, Itchgrass (itchgrass; 8 g ai/ha, preemergence): 0
Itchgrass plant response rating (itchgrass; 62 g ai/ha, Preemergence): 100
Plant response rating, Itchgrass (itchgrass; Preemergence, 16 g ai/ha): 0
Plant response rating, Itchgrass (itchgrass; Preemergence, 31 g ai/ha): 35
Plant response rating, Field Bindweed (field bindweed; 8 g ai/ha, preemergence): 0
Field Bindweed plant response rating (field bindweed; 62 g ai/ha, Preemergence): 0
Plant response rating, Field Bindweed (field bindweed; Preemergence, 16 g ai/ha): 0
Plant response rating, Field Bindweed (field bindweed; Preemergence, 31 g ai/ha): 0
